Test results taken from ChEMBL document CHEMBL1201862, “PubChem BioAssay data set” (2004).
Active and inactive are the calls of the source.

Tests used:
[1] = A cytotoxicity screen of small molecule inhibitors of the PhoP region in Salmonella typhi identified in the primary screen. [Related pubchem assays: 1850, 1864, 1985 ]; format: functional
[2] = biological target: Aurora kinase A (Homo sapiens, UniProt O14965); format: functional;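 note: value from the Navigating the Kinome kinase panel profiling, panel entry STK6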
Chain of Aurora kinase A (O14965 whole entry): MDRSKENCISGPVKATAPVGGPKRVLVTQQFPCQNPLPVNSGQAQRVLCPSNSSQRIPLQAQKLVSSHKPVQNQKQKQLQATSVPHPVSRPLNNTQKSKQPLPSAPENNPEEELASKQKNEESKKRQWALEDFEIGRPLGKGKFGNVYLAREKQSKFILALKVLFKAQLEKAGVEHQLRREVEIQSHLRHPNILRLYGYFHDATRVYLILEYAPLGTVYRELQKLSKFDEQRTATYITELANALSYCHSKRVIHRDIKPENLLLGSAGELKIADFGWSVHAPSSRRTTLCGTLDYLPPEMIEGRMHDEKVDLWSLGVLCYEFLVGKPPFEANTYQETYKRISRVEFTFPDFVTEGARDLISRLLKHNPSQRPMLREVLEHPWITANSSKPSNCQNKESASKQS

[3] = biological target: Glycogen synthase kinase-3 beta (Homo sapiens, UniProt P49841); format: functional;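 note: value comes from a broad kinome profiling panel, with GSK3B as the panel member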
Chain of Glycogen synthase kinase-3 beta (P49841 whole entry, the tested form may be a part): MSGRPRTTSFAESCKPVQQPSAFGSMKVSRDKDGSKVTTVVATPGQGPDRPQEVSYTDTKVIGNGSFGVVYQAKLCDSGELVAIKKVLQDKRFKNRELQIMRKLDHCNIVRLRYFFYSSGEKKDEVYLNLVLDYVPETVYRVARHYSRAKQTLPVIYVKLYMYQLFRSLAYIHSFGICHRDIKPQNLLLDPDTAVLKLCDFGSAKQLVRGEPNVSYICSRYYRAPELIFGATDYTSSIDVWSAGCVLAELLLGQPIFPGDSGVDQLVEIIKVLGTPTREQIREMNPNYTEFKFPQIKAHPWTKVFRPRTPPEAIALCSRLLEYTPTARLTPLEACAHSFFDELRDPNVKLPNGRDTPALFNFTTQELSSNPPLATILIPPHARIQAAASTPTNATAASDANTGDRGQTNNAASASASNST

[4] = biological target: Apelin receptor (Homo sapiens, UniProt P35414); test: apelin receptor antagonists, arrestin read-out – cell-based, luminescent, enzyme-fragment complementation, selectivity assay for CCR6 antagonist project, SAR follow-up (AID 588359); format: functional
Chain of Apelin receptor (P35414 whole entry, the tested form may be a part): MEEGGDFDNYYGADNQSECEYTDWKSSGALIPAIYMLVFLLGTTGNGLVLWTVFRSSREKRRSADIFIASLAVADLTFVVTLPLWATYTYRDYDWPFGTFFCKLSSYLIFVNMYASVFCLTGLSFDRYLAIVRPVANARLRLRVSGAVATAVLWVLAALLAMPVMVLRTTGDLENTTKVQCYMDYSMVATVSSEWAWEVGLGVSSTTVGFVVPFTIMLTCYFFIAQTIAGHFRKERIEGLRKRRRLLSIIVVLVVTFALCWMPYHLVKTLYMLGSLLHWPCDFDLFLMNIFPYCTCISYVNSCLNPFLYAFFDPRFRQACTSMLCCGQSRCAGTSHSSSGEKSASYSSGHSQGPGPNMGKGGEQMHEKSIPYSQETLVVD

[5] = biological target: C-X-C chemokine receptor type 5 (Homo sapiens, UniProt P32302); test: inhibition of CXCL13-driven CXCR5 beta-arrestin recruitment – cell-based, luminescence, CHO-K1 PathHunter, selectivity assay for CCR6 antagonist project, SAR follow-up (AID 540340); format: functional
Chain of C-X-C chemokine receptor type 5 (P32302 whole entry): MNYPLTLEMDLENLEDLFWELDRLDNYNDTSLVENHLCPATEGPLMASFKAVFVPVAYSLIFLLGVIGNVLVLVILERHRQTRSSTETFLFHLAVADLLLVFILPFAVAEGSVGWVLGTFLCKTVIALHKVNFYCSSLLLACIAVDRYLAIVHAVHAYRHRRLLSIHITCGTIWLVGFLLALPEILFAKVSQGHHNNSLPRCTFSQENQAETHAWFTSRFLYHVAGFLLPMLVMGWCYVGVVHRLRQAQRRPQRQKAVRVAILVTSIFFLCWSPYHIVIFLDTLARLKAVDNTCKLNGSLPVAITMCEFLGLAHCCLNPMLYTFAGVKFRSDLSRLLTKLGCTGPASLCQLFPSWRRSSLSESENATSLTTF

[6] = biological target: T1, C-C chemokine receptor type 6 (Homo sapiens, UniProt P51684); test: analog antagonism of CCR6 beta-arrestin signaling – cell-based, luminescent beta-arrestin readout, SAR follow-up (AID 540334); format: functional
T1 sequence (P51684 whole entry): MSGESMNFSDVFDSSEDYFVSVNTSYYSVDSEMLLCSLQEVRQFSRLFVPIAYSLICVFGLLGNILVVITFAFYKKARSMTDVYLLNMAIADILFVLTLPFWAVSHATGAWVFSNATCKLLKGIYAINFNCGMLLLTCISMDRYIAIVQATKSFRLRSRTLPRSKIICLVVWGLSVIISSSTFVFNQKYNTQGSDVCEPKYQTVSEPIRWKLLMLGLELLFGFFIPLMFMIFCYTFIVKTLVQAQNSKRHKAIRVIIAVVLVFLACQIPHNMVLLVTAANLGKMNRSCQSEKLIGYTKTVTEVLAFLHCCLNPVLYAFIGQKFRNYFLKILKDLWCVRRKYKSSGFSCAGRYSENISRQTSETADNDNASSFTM

[7] = biological target: T2, Caspase-3 (Homo sapiens, UniProt P42574); test: inhibition of recombinant caspase-3 activity – biochemical, luminescence, set 2, selectivity assay for SENP protease inhibitor project, SAR follow-up (AID 588599); format: functional
T2 sequence (P42574 whole entry): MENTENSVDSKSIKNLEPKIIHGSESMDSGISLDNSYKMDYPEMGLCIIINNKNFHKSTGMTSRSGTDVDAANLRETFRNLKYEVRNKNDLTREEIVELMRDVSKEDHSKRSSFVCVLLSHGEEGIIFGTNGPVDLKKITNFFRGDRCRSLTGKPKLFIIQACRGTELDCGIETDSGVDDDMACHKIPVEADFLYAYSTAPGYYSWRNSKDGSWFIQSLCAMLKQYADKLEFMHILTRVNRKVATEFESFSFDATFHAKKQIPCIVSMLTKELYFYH

[8] = biological target: T3, Sentrin-specific protease 8 (Homo sapiens, UniProt Q96LD8); test: inhibition of sentrin protease 8 – biochemical, luminescence, set 2, SAR follow-up (AID 588601); format: functional
T3 sequence (Q96LD8 whole entry): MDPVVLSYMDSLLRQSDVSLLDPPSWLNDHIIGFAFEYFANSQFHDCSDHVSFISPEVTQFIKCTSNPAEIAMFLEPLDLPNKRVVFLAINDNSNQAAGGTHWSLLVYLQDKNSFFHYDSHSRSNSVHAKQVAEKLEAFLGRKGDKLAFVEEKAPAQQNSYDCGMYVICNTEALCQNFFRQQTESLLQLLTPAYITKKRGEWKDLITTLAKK

[9] = biological target: T4, Sentrin-specific protease 7 (Homo sapiens, UniProt Q9BQF6); test: inhibition of human SENP7 cleavage activity – biochemical, luminescence, set 2, SAR follow-up (AID 588600); format: functional
T4 sequence (Q9BQF6 whole entry): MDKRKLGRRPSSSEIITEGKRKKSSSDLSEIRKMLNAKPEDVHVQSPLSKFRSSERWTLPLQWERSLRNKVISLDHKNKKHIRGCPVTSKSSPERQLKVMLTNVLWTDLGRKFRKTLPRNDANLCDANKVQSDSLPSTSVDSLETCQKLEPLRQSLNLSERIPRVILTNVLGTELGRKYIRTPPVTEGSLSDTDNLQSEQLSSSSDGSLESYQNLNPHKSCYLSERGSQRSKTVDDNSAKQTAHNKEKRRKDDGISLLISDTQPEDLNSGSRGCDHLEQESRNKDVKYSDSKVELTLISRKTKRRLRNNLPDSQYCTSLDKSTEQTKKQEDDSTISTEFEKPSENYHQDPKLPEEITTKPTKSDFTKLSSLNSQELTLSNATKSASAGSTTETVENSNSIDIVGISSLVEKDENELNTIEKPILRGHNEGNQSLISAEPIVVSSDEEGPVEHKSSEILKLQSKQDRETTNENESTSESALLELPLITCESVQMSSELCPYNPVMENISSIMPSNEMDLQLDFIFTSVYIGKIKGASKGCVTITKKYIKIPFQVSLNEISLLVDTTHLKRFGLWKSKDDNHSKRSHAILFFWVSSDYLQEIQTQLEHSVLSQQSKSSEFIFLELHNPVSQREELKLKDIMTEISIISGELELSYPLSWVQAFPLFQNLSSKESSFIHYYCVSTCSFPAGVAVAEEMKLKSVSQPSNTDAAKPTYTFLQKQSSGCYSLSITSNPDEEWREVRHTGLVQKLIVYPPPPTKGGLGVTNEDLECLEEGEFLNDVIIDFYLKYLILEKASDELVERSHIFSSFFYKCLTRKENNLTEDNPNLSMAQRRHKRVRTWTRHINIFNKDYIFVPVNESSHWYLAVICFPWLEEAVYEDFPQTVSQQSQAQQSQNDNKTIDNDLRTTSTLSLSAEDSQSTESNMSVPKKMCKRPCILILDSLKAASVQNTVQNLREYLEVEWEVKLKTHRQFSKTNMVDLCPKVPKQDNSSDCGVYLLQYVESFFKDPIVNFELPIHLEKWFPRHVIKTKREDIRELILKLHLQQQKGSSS

[10] = biological target: T5, Sentrin-specific protease 6 (Homo sapiens, UniProt Q9GZR1); test: inhibition of human SENP6 catalytic domain – biochemical, luminescence, set 2, SAR follow-up (AID 588598); format: functional
T5 sequence (Q9GZR1 whole entry): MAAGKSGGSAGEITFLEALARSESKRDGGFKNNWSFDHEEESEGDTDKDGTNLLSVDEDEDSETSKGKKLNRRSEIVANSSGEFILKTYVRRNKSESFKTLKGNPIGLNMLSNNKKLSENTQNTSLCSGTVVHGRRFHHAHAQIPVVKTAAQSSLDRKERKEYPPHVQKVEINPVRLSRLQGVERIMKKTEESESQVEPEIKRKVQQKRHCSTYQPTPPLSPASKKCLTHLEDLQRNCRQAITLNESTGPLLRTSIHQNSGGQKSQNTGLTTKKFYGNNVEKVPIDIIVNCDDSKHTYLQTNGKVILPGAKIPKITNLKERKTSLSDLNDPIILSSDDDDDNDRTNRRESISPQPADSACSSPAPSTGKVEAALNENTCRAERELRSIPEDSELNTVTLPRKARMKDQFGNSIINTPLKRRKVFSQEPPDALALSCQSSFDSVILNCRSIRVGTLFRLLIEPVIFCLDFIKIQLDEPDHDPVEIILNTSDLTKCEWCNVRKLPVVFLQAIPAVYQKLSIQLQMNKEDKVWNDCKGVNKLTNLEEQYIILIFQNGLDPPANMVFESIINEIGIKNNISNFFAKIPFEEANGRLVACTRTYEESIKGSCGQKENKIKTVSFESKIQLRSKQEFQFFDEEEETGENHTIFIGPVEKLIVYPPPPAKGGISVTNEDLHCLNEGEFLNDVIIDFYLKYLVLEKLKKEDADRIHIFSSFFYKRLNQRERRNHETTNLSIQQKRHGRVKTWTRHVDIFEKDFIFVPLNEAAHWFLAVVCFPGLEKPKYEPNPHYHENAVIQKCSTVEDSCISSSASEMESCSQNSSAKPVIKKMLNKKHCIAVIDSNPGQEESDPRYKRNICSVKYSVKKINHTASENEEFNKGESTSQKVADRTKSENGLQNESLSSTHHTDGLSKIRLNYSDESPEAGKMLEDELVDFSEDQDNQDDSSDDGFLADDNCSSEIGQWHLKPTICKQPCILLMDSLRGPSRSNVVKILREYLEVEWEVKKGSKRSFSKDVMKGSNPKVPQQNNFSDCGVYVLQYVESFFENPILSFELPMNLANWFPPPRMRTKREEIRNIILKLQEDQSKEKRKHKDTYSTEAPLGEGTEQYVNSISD

[11] = biological target: T3, Sentrin-specific protease 8; test: inhibition of human SENP8 cleavage activity – biochemical, luminescence, SAR follow-up (AID 504501); format: functional
[12] = biological target: T2, Caspase-3; test: SAR Analysis of small molecule inhibitors of Sentrin-specific proteases (SENPs) using a Caspase-3 Selectivity assay. [Related pubchem assays (depositor defined):AID2540, AID2599, AID434973, AID489001]; format: functional
[13] = biological target: T5, Sentrin-specific protease 6; test: SAR Analysis of small molecule inhibitors of Sentrin-specific protease 6 (SENP6) using a Luminescent assay. [Related pubchem assays (depositor defined):AID2582, AID2599]; format: functional
[14] = biological target: T4, Sentrin-specific protease 7; test: inhibition of human SENP7 cleavage activity – biochemical, luminescence, SAR follow-up (AID 504497); format: functional
[15] = tested on: Candida albicans; test: resistant Candida growth with fluconazole co-treatment – CaCi-8 strain, Alamar Blue, dry powder, set 3, dose response (AID 488905); format: functional, organism-based
[16] = tested on: Candida albicans; test: Candida growth inhibition combined with fluconazole – CaCi-2 strain, Alamar Blue, dry powder, set 3, dose response (AID 488907); format: functional, organism-based

With `O=C(Nc1ccccc1)Nc1nccs1` the EC50 [1] was > 50 µM (active), the Ki [2] was 15.8 µM (active) and the Ki [3] was 10 µM (active).

With `Cc1cccc2c1N(CCCOc1ccc(C(C)(C)C)cc1)C(=O)C2=O` the IC50 [4] was > 66.6 µM (inactive), the IC50 [5] was 24.3 µM (inactive) and the IC50 [6] was > 66.6 µM (inactive).

With `O=C(N/N=C/c1c[nH]c2ccccc12)c1[nH]c2ccc(Cl)cc2c1-c1ccccc1` the IC50 [7] was > 99 µM (inactive), the IC50 [8] was > 99 µM (inactive) and the IC50 [9] was > 99 µM (inactive). The IC50 [10] was > 99 µM (inactive).

With `Cc1c(C(=O)Nc2nc3ccc(Cl)cc3s2)oc2ccccc12` the IC50 [11] was > 99 µM (inactive), the IC50 [12] was > 99 µM (inactive) and the IC50 [13] was > 99 µM (inactive). The IC50 [14] was > 99 µM (inactive).

In the case of `O=C(c1ccc(Cl)cc1)N1CCN(c2ccc(C(F)(F)F)cn2)CC1`, the AC50 [15] is reported as 130 µM (active) and the AC50 [16] is reported as 0.259 µM (active).
